One experiment addresses T1, human V2 receptor (Homo sapiens, UniProt P30518).
T1 construct: expressed in transfected cells; host or cells: CHO K1 (ATCC) expressing firefly luciferase under a CRE-responsive promoter
Kind of experiment: Cellular in vitro assay for determining vasopressin receptor activity (V2, CRE-luciferase). The settings on record: CHO cell line transfected with the human V2 receptor; [Arg8]-vasopressin at EC50 concentration; read-out: IC50 hV2. In kind it is cell-based. As to the method: (§1) B-1. Cellular In Vitro Assay for Determining Vasopressin Receptor Activity
(§2) The identification of agonists and antagonists of the V1a and V2 vasopressin receptors from humans, rats and dogs as well as the quantification of the activity of the compounds of the invention is carried out using recombinant cell lines. These cell lines originally derive from a hamster's ovary epithelial cell (Chinese Hamster Ovary, CHO K1, ATCC: American Type Culture Collection, Manassas, Va. 20108, USA). The test cell lines constitutively express the human, rat or dog V1a or V2 receptors. In case of the Gαq-coupled V1a receptors, cells are also stably transfected with a modified form of the calcium-sensitive photoproteins aequorin (human and rat V1a) or obelin (dog V1a), which, after reconstitution with the cofactor coelenterazine, emit light when there are increases in free calcium concentrations [Rizzuto R, Simpson A W, Brini M, Pozzan T, Nature 358, 325-327 (1992); Illarionov B A, Bondar V S, Illarionova V A, Vysotski E S, Gene 153 (2), 273-274 (1995)]. The resulting vasopressin receptor cells react to stimulation of the recombinantly expressed V1a receptors by intracellular release of calcium ions, which can be quantified by the resulting photoprotein luminescence. The Gs-coupled V2 receptors are stably transfected into cell lines expressing the gene for firefly luciferase under control of a CRE-responsible promoter. Activation of V2 receptors induces the activation of the CRE-responsive promoter via cAMP increase, thereby inducing the expression of firefly luciferase. The light emitted by photoproteins of V1a cell lines as well as the light emitted by firefly luciferase of V2 cell lines corresponds to the activation or inhibition of the respective vasopressin receptor. The bioluminescence of the cell lines is detected using a suitable luminometer [Milligan G, Marshall F, Rees S, Trends in Pharmacological Sciences 17, 235-237 (1996)].
Vasopressin V2 receptor cell lines:
On the day before the assay, the cells are plated out in culture medium (DMEM/F12, 2% FCS, 2 mM glutamine, 10 mM HEPES) in 384-well microtiter plates and kept in a cell incubator (96% humidity, 5% v/v CO2, 37° C.). On the day of the assay, test compounds in various concentrations and the agonist [Arg^8]-vasopressin at EC50 concentration are added together to the wells, and plates are incubated for 3 hours in a cell incubator. Upon addition of the cell lysis reagent Triton™ and the substrate luciferin, luminescence of firefly luciferase is measured in a luminometer.
(§3) Table 1A below lists individual IC50 values for the compounds of the invention (including racemic mixtures as well as separated enantiomers) that were obtained from cell lines transfected with the human V1a or V2 receptor: […]

A further experiment has as its target T2, human V1a receptor (Homo sapiens, UniProt P37288).
T2 construct: expressed in transfected cells; host or cells: CHO K1 (ATCC), also stably transfected with a modified aequorin
Put plainly: Cellular in vitro assay for determining vasopressin receptor activity (V1a, aequorin luminescence). The format is cell-based. The settings on record: for pIC50: CHO cell line transfected with the human V1a receptor, [Arg8]-vasopressin at EC50 concentration, read-out: IC50 hV1a; for ratio IC50 hV2/hV1a: selectivity ratio of IC50 hV2 to IC50 hV1a. As to the method: as §1, §2
Vasopressin V1a receptor cell lines:
On the day before the assay, the cells are plated out in culture medium (DMEM/F12, 2% FCS, 2 mM glutamine, 10 mM HEPES, 5 μg/ml coelenterazine) in 384-well microtiter plates and kept in a cell incubator (96% humidity, 5% v/v CO2, 37° C.). On the day of the assay, test compounds in various concentrations are placed for 10 minutes in the wells of the microtiter plate before the agonist [Arg^8]-vasopressin at EC50 concentration is added. The resulting light signal is measured immediately in a luminometer.
as §3

pIC50: −log10 of the molar value. Where a name gives a salt, the structure may show the parent alone.

T1 sequence (P30518 whole entry): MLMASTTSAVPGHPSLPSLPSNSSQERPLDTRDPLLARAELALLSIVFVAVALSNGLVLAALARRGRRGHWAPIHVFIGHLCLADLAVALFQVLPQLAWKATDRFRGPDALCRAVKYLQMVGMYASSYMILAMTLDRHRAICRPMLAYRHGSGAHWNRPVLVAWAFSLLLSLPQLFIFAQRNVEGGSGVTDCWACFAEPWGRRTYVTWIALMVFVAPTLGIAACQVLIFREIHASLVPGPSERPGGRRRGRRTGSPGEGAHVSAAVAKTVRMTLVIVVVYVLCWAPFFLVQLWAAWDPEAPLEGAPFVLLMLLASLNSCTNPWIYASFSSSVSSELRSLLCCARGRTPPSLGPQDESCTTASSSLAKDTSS
T2 sequence (P37288 whole entry): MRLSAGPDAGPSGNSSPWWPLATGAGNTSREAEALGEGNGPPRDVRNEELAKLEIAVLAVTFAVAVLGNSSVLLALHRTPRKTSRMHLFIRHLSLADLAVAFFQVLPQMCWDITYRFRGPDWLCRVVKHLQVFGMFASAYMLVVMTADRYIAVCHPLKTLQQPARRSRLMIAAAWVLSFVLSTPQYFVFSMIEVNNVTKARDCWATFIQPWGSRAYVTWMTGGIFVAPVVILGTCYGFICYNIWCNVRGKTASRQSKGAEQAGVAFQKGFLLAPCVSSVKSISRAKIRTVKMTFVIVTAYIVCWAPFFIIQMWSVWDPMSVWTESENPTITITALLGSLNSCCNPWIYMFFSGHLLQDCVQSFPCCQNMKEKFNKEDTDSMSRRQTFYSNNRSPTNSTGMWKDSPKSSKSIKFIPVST

Regarding `CC(N)c1nc(Cn2nc(-c3ccc(Cl)cc3)n(C[C@H](O)C(F)(F)F)c2=O)nn1-c1cccc(F)c1` (mixture of isomers) [Example 53, 2-({5-[1-Aminoethyl]-1-(3-fluorophenyl)-1H-1,2,4-triazol-3-yl}methyl)-5-(4-chlorophenyl)-4-[(2S)-3,3,3-trifluoro-2-hydroxypropyl]-2,4-dihydro-3H-1,2,4-triazol-3-one trifluoroacetate], the pIC50 – broadly, −log10 of the IC50, conventionally taken in molar units – on human V2 receptor is 8.28. For the same compound, on human V1a receptor, the pIC50 was 7.74 and the “ratio IC50 hV2/hV1a” value is listed as 0.3.
The matching figures for `Cc1ccccc1-n1nc(Cn2nc(-c3ccc(Cl)cc3)n(C[C@H](O)C(F)(F)F)c2=O)nc1C(C)N` (mixture of isomers) [Example 59, 2-({5-[1-Aminoethyl]-1-(2-methylphenyl)-1H-1,2,4-triazol-3-yl}methyl)-5-(4-chlorophenyl)-4-[(2S)-3,3,3-trifluoro-2-hydroxypropyl]-2,4-dihydro-3H-1,2,4-triazol-3-one trifluoroacetate]: 8.56, 8.92 and 2.3.
The matching figures for `CC(N)c1nc(Cn2nc(-c3ccc(Cl)cc3)n(C[C@H](O)C(F)(F)F)c2=O)nn1-c1ccccc1Cl` (mixture of isomers) [Example 60, 2-({5-[1-Aminoethyl]-1-(2-chlorophenyl)-1H-1,2,4-triazol-3-yl}methyl)-5-(4-chlorophenyl)-4-[(2S)-3,3,3-trifluoro-2-hydroxypropyl]-2,4-dihydro-3H-1,2,4-triazol-3-one trifluoroacetate]: 8.50, 9.13 and 4.3.
Regarding `CC(=O)NC(C)c1nc(Cn2nc(-c3ccc(Cl)cc3)n(C[C@H](O)C(F)(F)F)c2=O)nn1-c1ccccc1Cl` (mixture of isomers) [Example 64, N-{1-[1-(2-Chlorophenyl)-3-({3-(4-chlorophenyl)-5-oxo-4-[(2S)-3,3,3-trifluoro-2-hydroxypropyl]-4,5-dihydro-1H-1,2,4-triazol-1-yl}methyl)-1H-1,2,4-triazol-5-yl]ethyl}acetamide], at human V2 receptor, the pIC50 was 7.75. Further, on human V1a receptor, the pIC50 is 8.74 and the “ratio IC50 hV2/hV1a” value was found to be 9.8.
`CC(NS(C)(=O)=O)c1nc(Cn2nc(-c3ccc(Cl)cc3)n(C[C@H](O)C(F)(F)F)c2=O)nn1-c1ccccc1Cl` (mixture of isomers) [Example 67, N-{1-[1-(2-Chlorophenyl)-3-({3-(4-chlorophenyl)-5-oxo-4-[(2S)-3,3,3-trifluoro-2-hydroxypropyl]-4,5-dihydro-1H-1,2,4-triazol-1-yl}methyl)-1H-1,2,4-triazol-5-yl]ethyl}methanesulfonamide]: the negative-log IC50 (pIC50) on human V2 receptor is 8.61; at human V1a receptor it was 9.08. For the same compound, the “ratio IC50 hV2/hV1a” value on human V1a receptor was 2.9.
The matching figures for `CN1C(=O)CCC1c1nc(Cn2nc(-c3ccc(Cl)cc3)n(C[C@H](O)C(F)(F)F)c2=O)nn1-c1ccccc1Cl` (mixture of isomers) [Example 70, 5-(4-Chlorophenyl)-2-{[1-(2-chlorophenyl)-5-(1-methyl-5-oxopyrrolidin-2-yl)-1H-1,2,4-triazol-3-yl]methyl}-4-[(2S)-3,3,3-trifluoro-2-hydroxypropyl]-2,4-dihydro-3H-1,2,4-triazol-3-one]: 8.15, 9.09 and 8.7.
The matching figures for `CC(NC(=O)C(F)(F)F)c1nc(Cn2nc(-c3ccc(Cl)cc3)n(C[C@H](O)C(F)(F)F)c2=O)nn1-c1ccccc1Cl` (mixture of isomers) [Example 73, N-{1-[1-(2-Chlorophenyl)-3-({3-(4-chlorophenyl)-5-oxo-4-[(2S)-3,3,3-trifluoro-2-hydroxypropyl]-4,5-dihydro-1H-1,2,4-triazol-1-yl}methyl)-1H-1,2,4-triazol-5-yl]ethyl}-2,2,2-trifluoroacetamide]: 8.07, 8.81 and 5.5.
The matching figures for `CC(C)(C)OCC(N)c1nc(Cn2nc(-c3ccc(Cl)cc3)n(C[C@H](O)C(F)(F)F)c2=O)nn1-c1ccccc1Cl` (mixture of isomers) [Example 80, 2-({5-[1-Amino-2-tert-butoxyethyl]-1-(2-chlorophenyl)-1H-1,2,4-triazol-3-yl}methyl)-5-(4-chlorophenyl)-4-[(2S)-3,3,3-trifluoro-2-hydroxypropyl]-2,4-dihydro-3H-1,2,4-triazol-3-one]: 7.72, 9.21 and 31.4.
Take `NC(CO)c1nc(Cn2nc(-c3ccc(Cl)cc3)n(C[C@H](O)C(F)(F)F)c2=O)nn1-c1ccccc1Cl` (mixture of isomers) [Example 81, 2-({5-[1-Amino-2-hydroxyethyl]-1-(2-chlorophenyl)-1H-1,2,4-triazol-3-yl}methyl)-5-(4-chlorophenyl)-4-[(2S)-3,3,3-trifluoro-2-hydroxypropyl]-2,4-dihydro-3H-1,2,4-triazol-3-one hydrochloride]: the results for the pIC50 at human V2 receptor and on human V1a receptor were 8.10 and 8.90, respectively. Also, the “ratio IC50 hV2/hV1a” value on human V1a receptor amounted to 6.4.
For the compound `CC(C)(C)OCC(NS(C)(=O)=O)c1nc(Cn2nc(-c3ccc(Cl)cc3)n(C[C@H](O)C(F)(F)F)c2=O)nn1-c1ccccc1Cl` (mixture of isomers) [Example 82, N-{2-tert-Butoxy-1-[1-(2-chlorophenyl)-3-({3-(4-chlorophenyl)-5-oxo-4-[(2S)-3,3,3-trifluoro-2-hydroxypropyl]-4,5-dihydro-1H-1,2,4-triazol-1-yl}methyl)-1H-1,2,4-triazol-5-yl]ethyl}methanesulfonamide], the pIC50 on human V2 receptor was 7.32. Further, on human V1a receptor, the pIC50 is 9.19 and the “ratio IC50 hV2/hV1a” value is 75.6.
Turning to `CS(=O)(=O)NC(CO)c1nc(Cn2nc(-c3ccc(Cl)cc3)n(C[C@H](O)C(F)(F)F)c2=O)nn1-c1ccccc1Cl` (mixture of isomers) [Example 85, N-{1-[1-(2-Chlorophenyl)-3-({3-(4-chlorophenyl)-5-oxo-4-[(2S)-3,3,3-trifluoro-2-hydroxypropyl]-4,5-dihydro-1H-1,2,4-triazol-1-yl}methyl)-1H-1,2,4-triazol-5-yl]-2-hydroxyethyl}-methanesulfonamide], the pIC50 on human V2 receptor was 8.65. Also, on human V1a receptor, the negative logarithm of the IC50 (pIC50) was 9.46 and the “ratio IC50 hV2/hV1a” value is on record as 6.4.
The matching figures for `CC(=O)NC(COC(C)(C)C)c1nc(Cn2nc(-c3ccc(Cl)cc3)n(C[C@H](O)C(F)(F)F)c2=O)nn1-c1ccccc1Cl` (mixture of isomers) [Example 88, N-{2-tert-Butoxy-1-[1-(2-chlorophenyl)-3-({3-(4-chlorophenyl)-5-oxo-4-[(2S)-3,3,3-trifluoro-2-hydroxypropyl]-4,5-dihydro-1H-1,2,4-triazol-1-yl}methyl)-1H-1,2,4-triazol-5-yl]ethyl}acetamide]: 7.34, 8.82 and 30.3.
For `CC(=O)NC(CO)c1nc(Cn2nc(-c3ccc(Cl)cc3)n(C[C@H](O)C(F)(F)F)c2=O)nn1-c1ccccc1Cl` (mixture of isomers) [Example 91, N-{1-[1-(2-Chlorophenyl)-3-({3-(4-chlorophenyl)-5-oxo-4-[(2S)-3,3,3-trifluoro-2-hydroxypropyl]-4,5-dihydro-1H-1,2,4-triazol-1-yl}methyl)-1H-1,2,4-triazol-5-yl]-2-hydroxyethyl}acetamide], the pIC50 at human V2 receptor is 8.05. Further, at human V1a receptor, the pIC50 is 9.15 and the “ratio IC50 hV2/hV1a” value is 12.5.

The values above are taken from patent publication US20210253557A1, “SUBSTITUTED TRIAZOLE DERIVATIVES AND USES THEREOF” (Bayer Pharma Aktiengesellschaft, priority 2017, published 2021).
